Test results published in patent US20100292229A1, “TRYPHOSTIN-ANALOGS FOR THE TREATMENT OF CELL PROLIFERATIVE DISEASES” (The Board of Regents of the University of Texas System, priority 2006, published 2010).
pIC50: −log10 of the molar value. Where a SMILES comes first, the peptide text is derived from it. The star is where a group is joined. Cbz = O=C(OCc1ccccc1)*

Legend:
[1] = tested on: MM-1 cells; assay: MTT assay of cell growth and survival, MM-1 cells; format: cell-based
Protocol: (§1) All compounds are tested for purity (HPLC, NMR) and the calculated molecular weight is used to make up a 10 mM stock solution of each compound (in 100% dimethylsulfoxide or 50% dimethylsulfoxide:50% polyethylene glycol 300). Compounds are diluted into cell culture media consisting of RPMI 1640 with 10% fetal bovine serum to a final starting concentration of 10 μM. [Highest final DMSO content=0.1%.]. Tumor cells (20,000 for non-adherent cells; 5,000 for adherent cells) are plated into individual wells of a 96-well culture plate in 0.1 ml of culture media. Diluted compounds are added to individual wells containing pre-plated cells (final volume 0.2 ml) and incubated at 37° C. for 24 to 72 h. Wells receiving vehicle alone acted as a control.
(§2) MTT (viability) assay. MTT reagent (20 μl of 5 mg/ml stock solution, Sigma) is added to the cells and the plates are incubated at 37° C. for another 2 h. Cells are lysed by adding 100 μl of lysis buffer (20% SDS in 50% N,N-dimethylformamide (Sigma) adjusted to pH 4.7 by 80% acetic acid and 1 M HCl such that the final concentration of acetic acid is 2.5% and HCl is 2.5%) into each well and incubated for 6 h. The OD570 of each sample is determined by using a SPECTRA MAX M2 plate reader (Molecular Devices). The OD in control and treated wells is used as an estimate of the effect of compounds on cell growth and survival.
Cell lines. […] A375 melanoma cells were grown and maintained in the same media. Ba/F3 parental cells were grown in RPMI 1640 containing 10% heat inactivated fetal bovine serum and 2 mM glutamine supplemented with IL-3 (1 ng/ml) while Ba/F3 cells stably expressing Bcr/Abl or the T315I mutant of Bcr/Abl were grown in RPMI 1640 containing 10% heat inactivated fetal bovine serum and 2 mM glutamine in the absence of IL-3. Normal human dermal fibroblasts (NHDF) were obtained from Cambrex (Walkersville, Md.) and grown in specially formulated media (obtained through Cambrex) with 20% fetal calf serum.
IC50 determinations. The anti-tumor activity of certain compounds of the present invention against MM-1 cell lines was investigated and the IC50 values calculated (FIGS. 33A-F). In a typical experiment, MM-1 cell lines were incubated with a range of compound concentrations for 72 h to determine the concentration required to inhibit cell growth or induce apoptosis by 50% (IC50). MTT assays as described above were used to conduct this analysis.

[2] = tested on: K562 cells; assay: MTT assay of cell growth and survival, K562 cells; format: cell-based, human; settings: FIG. 21; anti-tumor activity
Protocol: as §1, §2
Cell lines. […]

[3] = target: T1, c-myc (Homo sapiens, UniProt P01106); assay: c-myc protein immunoblot in MM-1 cells; format: cell-based; settings: for Effect of inhibitor pretreatment on Degrasyn-mediated c-myc protein reduction: inhibitor 2 h, then 5 μM Degrasyn 2 h
T1 construct: endogenous in cells; host or cells: MM-1 cells
T1 sequence (P01106 16-454 limits assumed): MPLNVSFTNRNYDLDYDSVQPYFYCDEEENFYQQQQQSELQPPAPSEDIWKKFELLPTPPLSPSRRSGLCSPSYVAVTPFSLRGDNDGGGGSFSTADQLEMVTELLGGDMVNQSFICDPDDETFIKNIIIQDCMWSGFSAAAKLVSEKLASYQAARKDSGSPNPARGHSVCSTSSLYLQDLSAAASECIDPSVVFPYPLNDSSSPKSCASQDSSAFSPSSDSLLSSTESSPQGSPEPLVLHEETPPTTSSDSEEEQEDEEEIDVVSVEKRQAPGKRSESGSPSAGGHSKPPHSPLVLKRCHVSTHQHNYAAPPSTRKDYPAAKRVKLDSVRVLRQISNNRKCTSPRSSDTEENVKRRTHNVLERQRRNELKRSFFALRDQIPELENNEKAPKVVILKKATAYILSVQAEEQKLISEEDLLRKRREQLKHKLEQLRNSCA
Protocol: Top: MM-1 cells were incubated with 5 μM Degrasyn for the interval noted before cell lysates were prepared and subjected to immunoblotting for c-myc and actin as a protein loading control.
Middle: MM-1 cells were treated with the indicated concentration of Degrasyn for 1 h before lysates were immunoblotted for c-myc and actin.
Bottom: MM-1 cells were treated as indicated before extraction of total RNA (TRIzol). RNA was resolved by agarose electrophoresis, transferred to a membrane and hybridized with a c-myc probe to determine the level of c-myc RNA in each sample. The ethidium bromide stained gel was photographed and 28S RNA content was detected as a measure of RNA content in each lane.
MM-1 cells were pretreated with protease/proteosome inhibitors (LLnL; LLnM; E-64d; MG132; PS341; Chloroquine; Ammonium Chloride; Cycloheximide) for 2 h before the addition of 5 μM Degrasyn or vehicle alone (DMSO as indicated) for an additional 2 h. Cell lysates were prepared and equal protein aliquots were subjected to immunoblotting for c-myc, Max (a c-myc binding partner) or actin as a protein loading control.
Pictured: MM-1 cells were treated with biotinylated Degrasyn (Bio-Deg) or Degrasyn (at the indicated concentration) for 1 h before analyzing effects on c-myc as described in FIG. 15.
(§3) Western Blot analysis. Cells were harvested, washed twice in cold 1×PBS and lysed in modified RIPA lysis buffer (150 mM NaCl, 1% NP-40, 0.5% Na-deoxycholate [DOC], 0.1% Na-dodecyl sulfate [SDS], 50 mM Tris-HCl (pH 7.5), 1 mM EDTA, 1 mM NaF, 2 mM Na-vanadate, with protease inhibitors (1 mM PMSF, 1 mM benzamidine, 10 μg/ml aprotinin, 10 μg/ml leupeptin) on ice for 30 min. The lysed cells were centrifuged at 13,000 rpm for 30 min and the supernatant collected. The protein concentration of the cell lysate was determined by the Bradford Protein Assay. Fifty to 60 μg of protein were resolved in a 10% SDS-PAGE, and transferred to a PVDF membrane. Western blotting was performed using specific primary antibodies Peroxidase-conjugated affiniPure anti-Mouse Anti-Rabbit secondary antibodies (Jackson Immunoresearch Laboratories, West Grove, Pa.). The proteins were visualized with ECL Plus reagents (Amersham Biosciences).

[4] = target: T2, nucleophosmin (NPM) (Homo sapiens, UniProt P06748); assay: Affinity recovery of Degrasyn interactive proteins with streptavidin beads; format: binding; settings: MM-1 or K562 cell lysates
T2 construct: endogenous in cells; host or cells: MM-1 and K562 cell lysates
T2 sequence (P06748 whole entry): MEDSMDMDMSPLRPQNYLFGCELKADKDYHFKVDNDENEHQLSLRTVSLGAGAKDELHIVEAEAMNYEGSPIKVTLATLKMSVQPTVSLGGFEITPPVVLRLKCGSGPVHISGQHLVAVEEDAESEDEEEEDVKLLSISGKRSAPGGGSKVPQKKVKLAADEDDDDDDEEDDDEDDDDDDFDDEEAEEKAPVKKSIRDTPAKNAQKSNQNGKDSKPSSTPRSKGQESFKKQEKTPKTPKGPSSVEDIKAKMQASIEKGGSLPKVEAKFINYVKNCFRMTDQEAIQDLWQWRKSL
Protocol: Biotinylated-Degrasyn (10 μM) was incubated with lysates from MM-1 cells (10 mg total protein) and interactive proteins were assessed by affinity recovery using Streptavidin-conjugated beads to bind biotinylated-Degrasyn. Free Degrasyn (10 μM) was incubated with biotinylated-Degrasyn in a parallel experiment to assist in identifying specific protein:Degrasyn interactions. Affinity complexes were washed and Streptavidin-Bio-Deg interaction proteins were assessed by disrupting protein complexes with SDS-sample buffer and resolving proteins by SDS-PAGE. The resolved proteins were detected by silver-staining the gel. Protein bands present in the biotinylated-Degrasyn sample that were absent in samples co-incubated with free Degrasyn were identified and cut from the gel. A 38 kDa protein band was prominent in this assessment and was subjected to in gel trypsinization and identification of HPLC resolved tryptic peptides by tandem mass spectroscopy analysis (David Hawke, Department of Molecular Pathology, M.D. Anderson Cancer Center). This analysis identified nucleophosmin (NPM) as a Degrasyn interactive protein.
To further assess the interaction between NPM and Degrasyn, biotinylated-Degrasyn/streptavidin beads were incubated with MM-1 (left) or K562 (right) cell lysates. In parallel, lysates were co-incubated with free Degrasyn to determine the specificity of the interaction with NPM. […]

[5] = tested on: p70 and p55 tyrosine phosphorylation; assay: Phosphotyrosine (4G10) immunoblot in B-cell malignancy cell lines; format: cell-based; settings: 2 h; MM-1, LP or Mino cells
Protocol: MM-1 cells were pretreated with Degrasyn (at the concentration indicated) for 2 h before the addition of IL-6 for 15 min (as noted). Total cell lysates were prepared and equal protein aliquots were resolved by SDS-PAGE and immunoblotted for phosphotyrosine (4G10).
MM-1 and LP (lymphoma) cells were treated with Degrasyn (at the concentration indicated) for 2 h before cell lysates were prepared and equal protein aliquots were resolved by SDS-PAGE and immunoblotted for phosphotyrosine (4G10).
MM-1 and Mino (Mantle cell lymphoma) cells were treated with Degrasyns with different levels of anti-tumor efficacy (at the concentration indicated) for 2 h before cell lysates were prepared and equal protein aliquots were resolved by SDS-PAGE and immunoblotted for phosphotyrosine (4G10).
MM-1 cells were treated as indicated before analysis of cellular tyrosine phosphorylation by immunoblotting. Both p70 and p55 were tyrosine phosphorylated after 15 min of Degrasyn treatment which peaks in intensity after 1 h and remains higher than control levels after 4 h. These early changes may underlie or be a marker of Degrasyn activity in B-cell malignancies.
as §3

With “2-Propenamide, 2-cyano-3-(3-bromo 2-pyridinyl)-N-(2-phenyl-2-ethylene)-1-biotinyl ester-(E) [Bio-Degrasyn]” the pIC50 ([1]; FIG. 21, anti-tumor activity, read-out: IC50 for MM-1 cells) was 5.42, the “Reduction of anti-tumor activity by biotinylation” value ([1]; MM-1 and K562 cells, relative to Degrasyn) was ~2 fold and the pIC50 [2] was 5.25. For the same molecule, the c-myc protein levels ([3]; FIG. 21, 1 h) was “reduced c-myc protein levels” and the “Interaction with NPM” value [4] was “recovered NPM from cell lysates”.
For N#C/C(=C\c1cccc(Br)n1)C(=O)NC(c1ccccc1)C1CC1 (stereo not drawn) [BDT-16], the “Anti-tumor activity relative to WP1130” value ([1]; FIG. 28) was “greater anti-tumor activity than WP1130” and the “Tyrosine phosphorylated protein species (~70 kDa, ~55 kDa)” value [5] was “more potently stimulates tyrosine phosphorylation”.
For CC(C)C[C@@H](C=O)NC(=O)[C@H](CC(C)C)NC(=O)[C@H](CC(C)C)NC(=O)OCc1ccccc1 [MG132, reference compound] (Cbz-Leu-Leu-Leu-aldehyde), the “Effect of inhibitor pretreatment on Degrasyn-mediated c-myc protein reduction” value [3] was “block Degrasyn-mediated c-myc protein reduction”.
In the case of CC(C)C[C@H](NC(=O)[C@H](Cc1ccccc1)NC(=O)c1cnccn1)B(O)O [PS341, reference compound], the “Effect of inhibitor pretreatment on Degrasyn-mediated c-myc protein reduction” value [3] was “block Degrasyn-mediated c-myc protein reduction”.
